Experiment [1] has as its system NCI-H1155 (lung cancer) cells. Put plainly: Cell Viability Assay, NCI-H1155. It counts as cell-based. Conditions: Homo sapiens, 72 hours. On the procedure: (§1) The purpose of this assay is to measure the ability of a compound to reduce viability of different cancer cells dependent on the NAMPT-mediated NAD^+ formation in vitro. HCC1937 (breast cancer) cells are cultured in RPMI-1640 supplemented with 10% FBS. Calu-6 (lung cancer) cells and MCF-7 (breast cancer) cells are cultured in Minimum Essential Medium (MEM) (Gibco11095) supplemented with 1 mM sodium pyruvate (Gibco 11360), 1% Non-Essential Amino Acids Solution (100×; Gibco 11140) and 10% FBS. NCI-H1155 (lung cancer) cells are cultured in Dulbecco's Modified Eagle Medium (DMEM) (Gibco 11965) with 10% FBS. […] Cell viability is analyzed by using an assay kit (CYTOTOX-GLO™ Cytotoxicity Assay kit, Promega) according to the manufacturer's instructions as follows. […] Luminescence is measured using a Wallac Victor3 V 1420 Multilabel Counter (Perkin Elmer), referred to as dead cell luminescence. […] After the plate is incubated at room temperature for 15 minutes, luminescence is measured using the plate reader, referred to as total luminescence. Viable cell luminescence (CPS) is calculated by subtracting the dead cell luminescence from the total luminescence Inhibition of cell viability is calculated based on the equation as follows:
(§2) Inhibition (%)=(CPSnegative−CPSsample)/(CPSnegative−CPSpositive)*100 where CPS is the luminescence of viable cells.

In experiment [2] the test system is MCF-7 (breast cancer) cells. The experiment in a line: Cell Viability Assay, MCF-7. It counts as cell-based. Conditions: Homo sapiens, MCF7, 72 hours. The protocol: as §1, §2

In the case of `CC(C)(O)CS(=O)(=O)Nc1ccc2c(c1)CCN(C(=O)COc1cccnc1)C2` [Example 1, 2-Hydroxy-2-methyl-N-[2-[2-(3-pyridyloxy)acetyl]-3,4-dihydro-1H-isoquinolin-6-yl]propane-1-sulfonamide], the figures for the IC50 in experiment [1] and in experiment [2] were 18 ± 3 nM and 389 ± 283 nM, respectively.

For `COCCS(=O)(=O)Nc1ccc2c(c1)CCN(C(=O)COc1cccnc1)C2` [Example 2, 2-Methoxy-N-[2-[2-(3-pyridyloxy)acetyl]-3,4-dihydro-1H-isoquinolin-6-yl]ethanesulfonamide], the figures for the concentration for half-maximal inhibition (IC50) in experiment [1] and in experiment [2] were 37 ± 16 nM and 352 ± 252 nM, respectively.

These data come from patent US20160229835A1, “NOVEL PYRIDYLOXYACETYL TETRAHYDROISOQUINOLINE COMPOUNDS USEFUL AS NAMPT INHIBITORS” (ELI LILLY AND COMPANY, priority 2013, published 2016).
